This is an account of results in PMC6925632 (Cell chemical biology, 2019).

One test deals with FOXO3a-GFP. Put plainly: FOXO3a translocation in MCF-7 cells. The settings on record: E2 10 nM, G-1 100 nM, AB-1 1 μM, EGF 50 ng/mL.
The next test concerns GPER over ERα. The settings on record: ref Dennis et al., 2011; cited from earlier work.
The subject of a further test is ERα over ERβ. The settings on record: ref Stauffer et al., 2000; cited from earlier work.
For a further test, the target named is T1, ERα (Homo sapiens, UniProt P03372).
T1 sequence (P03372 1-595): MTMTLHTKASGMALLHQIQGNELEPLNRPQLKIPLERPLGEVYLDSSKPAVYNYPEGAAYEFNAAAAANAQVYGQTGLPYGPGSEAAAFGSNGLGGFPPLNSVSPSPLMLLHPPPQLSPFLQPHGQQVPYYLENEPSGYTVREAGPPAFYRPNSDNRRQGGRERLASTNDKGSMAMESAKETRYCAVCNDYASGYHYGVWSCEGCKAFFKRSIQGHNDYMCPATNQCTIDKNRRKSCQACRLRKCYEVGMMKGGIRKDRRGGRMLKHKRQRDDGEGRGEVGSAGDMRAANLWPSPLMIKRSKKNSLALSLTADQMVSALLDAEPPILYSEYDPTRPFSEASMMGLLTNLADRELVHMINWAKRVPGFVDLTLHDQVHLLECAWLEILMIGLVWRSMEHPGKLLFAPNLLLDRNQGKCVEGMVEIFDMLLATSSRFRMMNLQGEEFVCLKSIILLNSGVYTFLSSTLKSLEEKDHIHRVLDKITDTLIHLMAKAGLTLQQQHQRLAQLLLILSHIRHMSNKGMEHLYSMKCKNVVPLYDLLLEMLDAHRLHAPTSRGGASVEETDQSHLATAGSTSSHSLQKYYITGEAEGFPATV
The settings on record: MCF-7 cells; 24 h; Western blot.

The subject of test [1] is ERβ-GFP. The settings on record: COS7 cells; 1 nM E2 or 1 μM AB-1; 15 min.
For test [2], the system named is ERβ-GFP.
Test [3] has as its system ERβ-GFP. The note with it: COS7 cells; 1 nM E2 or 1 μM AB-1.
In test [4] the test system is uterus of ovariectomized mice. Kind of test: Mouse uterine estrogenicity: uterine wet weight. The note with it: dose of 10 ng; subcutaneous; 18 h. Type of test: in vivo.

As to `CC(=O)c1ccc2c(c1)[C@@H]1C=CC[C@@H]1[C@H](c1cc3c(cc1Br)OCO3)N2` [G-1], the “FOXO3a translocation from nucleus to cytoplasm” value (from here on “FOXO3a translocation”) with FOXO3a-GFP is on record as “stimulated cytosolic translocation”. The “Selectivity for GPER over ERα” value in the test on GPER over ERα was > 10^5 fold.

Consider `CCCc1c(-c2ccc(O)cc2)nn(-c2ccc(O)cc2)c1-c1ccc(O)cc1` [PPT], for which the “Selectivity for ERα over ERβ” value with ERα over ERβ is “about 400 fold”.

For `C[C@]12CC[C@@H]3c4ccc(O)cc4C[C@@H](CCCCCCCCC[S+]([O-])CCCC(F)(F)C(F)(F)F)[C@H]3[C@@H]1CC[C@@H]2O` (stereo partly shown) [ICI182,780], the “Effect on ERα levels” value on ERα was “potently decreased”.

As to `C[C@]12CC[C@@H]3c4ccc(O)cc4CC[C@H]3[C@@H]1CC[C@@H]2O` [E2, 17β-estradiol], the “FOXO3a translocation” value with FOXO3a-GFP is listed as “stimulated cytosolic translocation”. Moreover, the “PI3K activation (nuclear translocation of PH-mRFP1), ERβ” value in the test on ERβ-GFP [1] was “induced strong nuclear localization of the PH-mRFP1 reporter”. The “Block of E2-Alexa633 binding to ERβ-GFP (confocal)” value with ERβ-GFP [2] is “blocked binding of E2-Alexa633”. In the test on ERβ-GFP [3], the “Induction of calcium mobilization, ERβ” value is on record as “induced rapid calcium mobilization”. In test [4], the Imbibition response entry is “strong imbibition response”.

Regarding “EGF: growth factor that stimulates the PI3K pathway (NSDSECPLSHDGYCLHDGVCMYIEALDKYACNCVVGYIGERCQYRDLKWWELR; UniProt P01133 971-1023, looked up)”, in the test on FOXO3a-GFP, the “FOXO3a translocation” value is recorded as “translocated from the nucleus to the cytoplasm”.
